Assay results published in patent US7803942B2, “Crystals of morphinan derivative and process for producing the same” (Toray Industries, Inc., priority 2005, dated 2010).

Test: pH of aqueous solution after production (Test Example 2)
Format: physicochemical
Details: 100 mg dissolved in 10 mL of decarbonated water; pH reproducibility after production; hydrochloride
Experimental: There was taken 100 mg each of the amorphous powders obtained in Reference Examples 1 to 3 and the A-form crystals obtained in Examples 1 to 3, to which 10 mL of decarbonated water was added for dissolution, followed by measuring the pH.

| SMILES | pH |
| --- | --- |
| CN(C(=O)/C=C/c1ccoc1)[C@@H]1CC[C@@]2(O)[C@H]3Cc4ccc(O)c5c4[C@@]2(CCN3CC2CC2)[C@H]1O5.Cl [Example 1, 17-cyclopropylmethyl-3,14β-dihydroxy-4,5α-epoxy-6β-[N-methyl-trans-3-(3-furyl)acrylamido]morphinan hydrochloride] | 5.8 |
| CN(C(=O)/C=C/c1ccoc1)[C@@H]1CC[C@@]2(O)[C@H]3Cc4ccc(O)c5c4[C@@]2(CCN3CC2CC2)[C@H]1O5.Cl [Example 2, 17-cyclopropylmethyl-3,14β-dihydroxy-4,5α-epoxy-6β-[N-methyl-trans-3-(3-furyl)acrylamido]morphinan hydrochloride] | 5.4 |
| CN(C(=O)/C=C/c1ccoc1)[C@@H]1CC[C@@]2(O)[C@H]3Cc4ccc(O)c5c4[C@@]2(CCN3CC2CC2)[C@H]1O5.Cl [Example 3, 17-cyclopropylmethyl-3,14β-dihydroxy-4,5α-epoxy-6β-[N-methyl-trans-3-(3-furyl)acrylamido]morphinan hydrochloride] | 5.6 |
| CN(C(=O)/C=C/c1ccoc1)[C@@H]1CC[C@@]2(O)[C@H]3Cc4ccc(O)c5c4[C@@]2(CCN3CC2CC2)[C@H]1O5.Cl [Reference Example 1, 17-cyclopropylmethyl-3,14β-dihydroxy-4,5α-epoxy-6β-[N-methyl-trans-3-(3-furyl)acrylamido]morphinan hydrochloride] | 3.7 |
| CN(C(=O)/C=C/c1ccoc1)[C@@H]1CC[C@@]2(O)[C@H]3Cc4ccc(O)c5c4[C@@]2(CCN3CC2CC2)[C@H]1O5.Cl [Reference Example 2, 17-cyclopropylmethyl-3,14β-dihydroxy-4,5α-epoxy-6β-[N-methyl-trans-3-(3-furyl)acrylamido]morphinan hydrochloride] | 4.7 |
| CN(C(=O)/C=C/c1ccoc1)[C@@H]1CC[C@@]2(O)[C@H]3Cc4ccc(O)c5c4[C@@]2(CCN3CC2CC2)[C@H]1O5.Cl [Reference Example 3, 17-cyclopropylmethyl-3,14β-dihydroxy-4,5α-epoxy-6β-[N-methyl-trans-3-(3-furyl)acrylamido]morphinan hydrochloride] | 3.5 |
